According to patent US20070238725A1, “Therapeutic combinations for the treatment or prevention of psychotic disorders” (Wyeth, priority 2006, published 2007):
Where two headings read alike, the source gives them in different places. Each block holds one molecule with its values, some of them ahead of it.

Tests used:
[1] = tested on: haloperidol induced catalepsy; assay: Catalepsy (bar test), extra-pyramidal side effect liability; assay type: in vivo, mice; details: for dose for increased EPS liability with co-administration: co-administration with haloperidol, mice
Protocol: (Compound 2, “cpd 2”) to exemplify, the present Example describes an experiment in which a compound of formula I was administered in combination with haloperidol to assess extra-pyramidal side effect liability, as represented by cataleptic behavior. [table] [table] [table] Mice were dosed with either the vehicle or a dose of haloperidol followed by a dose of either vehicle or a dose of Compound 1 or Compound 2. Thirty, 60, 90 and 120 minutes after dosing, the forelegs are draped over a thin horizontal rod 1.75″ high. The number of seconds up to 60 sec for which the mouse remains on the bar is recorded at each test point and presented as the percent of maximum possible response (60 sec).

[2] = tested on: conditioned avoidance responding; assay: Conditioned avoidance responding; assay type: in vivo; details: rats
Protocol: (Compound 2, “cpd 2”) to exemplify, the present Example describes an experiment to determine the effect of co-administration of haloperidol (0.54 mg/kg, i.p. 30′ pretreatment) or clozapine (5.4 mg/kg, i.p., 30′ pretreatment) and compound 1 (0.54 mg/kg, i.p., 30′ pretreatment) or compound 2 (1 mg/kg, i.p. 30′ pretreatment) on conditioned avoidance responding.
Male rats had been trained to a stable criterion performance of 90% avoidance responding and had been used in previous drug studies. The dosing plan was a within subject pseudo random design so that all rats received all treatments over several weeks. On test days in experiments 1 and 2 the rats were dosed with vehicle, Compound 1, haloperidol or clozapine or a combination of Compound 1/haloperidol or Compound 1/clozapine. On test days in experiments 3 and 4 the rats were dosed with vehicle, Compound 2, haloperidol or clozapine or a combination of Compound 2/haloperidol or Compound 2/clozapine. Conditioned avoidance testing commenced 30 minutes after treatment and the rats received 50 trials and the number of avoidance, escape and no response trials was recorded.

stereotypy = assay: Apomorphine-induced stereotypy scored in the climbing test; assay type: in vivo, mice
Protocol: (§1) Mice were acclimated to the climbing cages for at least 1 hour and then dosed with either the vehicle or a dose of haloperidol or clozapine followed by a dose of either vehicle or a dose of Compound 1. Thirty minutes after dosing all mice received 1 mg/kg, s.c. apomorphine and returned to the climbing cages. Five minutes after apomorphine the mice were observed and scored for climbing and stereotypy every 5 minutes for the 30 minute test session.

[3] = tested on: apomorphine-induced climbing; assay: Apomorphine-induced climbing in mice; assay type: in vivo; details: for block of apomorphine-induced climbing: versus either compound alone; for ED50: Mus musculus, read-out: ED50 for apomorphine block; for dose for increased efficacy with co-administration: co-administration with haloperidol
Protocol: (Compound 2, “cpd 2”) to exemplify, the present Example describes four experiments in which a compound of formula I, was administered in combination with either a typical (exemplified by haloperidol) or atypical (exemplified by clozapine). The combination reduced apomorphine-induced climbing without side effects.
as §1

[4] = administered individually, 0.54 mg/kg i.p., 30 min pretreatment
[5] = sc, 0.5 h, compound alone, mice, apomorphine 1 mg/kg s.c. 30 min after dosing

stereotypy relative to 0.3 haloperidol alone (stereotypy; 0.3 mg/kg haloperidol with all doses of Compound 1 (1.7, 5.4, 17 mg/kg)): decreased stereotypy
decrease in stereotypy (stereotypy; 17 mg/kg Compound 1 and 0.17 mg/kg haloperidol combined treatment group): < 10%
decrease in stereotypy (stereotypy; 17 mg/kg Compound 1 and 5.4 mg/kg clozapine combined treatment): ~13%
Compound: c1cc2c3c(c1)[C@H]1CCC[C@H]1N3CCNC2 [Compound 1]
catalepsy, percent of maximum catalepsy (60 sec on bar) ([1]; Compound 1 17 mg/kg with 0.17 and 0.3 mg/kg haloperidol, moderate increase, 30-120 min after dosing): up to 30%
dose for increased EPS liability with co-administration [1]: ≥ 17 mg/kg
potentiation of haloperidol-induced catalepsy ([1]; lower doses of Compound 1 (1.7, 5.4 mg/kg) with 0.17 and 0.3 mg/kg haloperidol): failed to potentiate catalepsy
decrease in avoidance responding ([2]; Compound 1 0.54 mg/kg co-administered with clozapine 5.4 mg/kg, i.p.): > 70%
effect on number of no response trials ([2]; Compound 1 0.54 mg/kg co-administered with clozapine 5.4 mg/kg): no adverse effects
decrease in avoidance responding ([2]; Compound 1 0.54 mg/kg co-administered with haloperidol 0.54 mg/kg, i.p.): > 70%
effect on number of no response trials ([2]; Compound 1 0.54 mg/kg co-administered with haloperidol 0.54 mg/kg): no adverse effects
decrease in avoidance responding [2, 4]: ~10%
block of apomorphine-induced climbing ([3]; Compound 1 5.4 & 17 mg/kg co-administered with clozapine 3 & 5.4 mg/kg): greater block
block of apomorphine-induced climbing ([3]; Compound 1 5.4 & 17 mg/kg co-administered with haloperidol 0.17 & 0.3 mg/kg): greater block
ED50 [3, 5]: 17 mg/kg
dose for increased efficacy with co-administration ([3]; mice): 5.4 mg/kg
ED50 for apomorphine block ([3]; compound alone, mice, apomorphine 1 mg/kg s.c. 30 min after dosing): 15.89 mg/kg

Compound: O=C(CCCN1CCC(O)(c2ccc(Cl)cc2)CC1)c1ccc(F)cc1 [haloperidol, 4-[4-(4-chlorophenyl)-4-hydroxy-1-piperidinyl]-1-(4-fluoro-phenyl)-1-butanone, reference compound]
decrease in avoidance responding [2, 4]: ~10%

Compound: CN1CCN(C2=Nc3cc(Cl)ccc3Nc3ccccc32)CC1 [clozapine, 8-chloro-11-(4-methyl-1-piperazinyl)-5H-dibenzo[b,e]-[1,4]-diazepine, reference compound]
decrease in avoidance responding ([2]; administered individually, 5.4 mg/kg i.p., 30 min pretreatment): ~10%

decrease in stereotypy (stereotypy; 30 mg/kg Compound 2 and 0.17 mg/kg haloperidol combined treatment relative to haloperidol alone): ~30%
decrease in stereotypy (stereotypy; 30 mg/kg Compound 2 and 5.4 mg/kg clozapine combined treatment): ~20%
Compound: c1cc2c3c(c1)[C@H]1CCC[C@H]1CN3CCNC2 [Compound 2]
potentiation of haloperidol-induced catalepsy ([1]; Compound 2 10 mg/kg with haloperidol 0.1 and 0.17 mg/kg): failed to potentiate
dose for increased EPS liability with co-administration [1]: > 10 mg/kg
decrease in avoidance responding ([2]; Compound 2 1 mg/kg co-administered with clozapine 5.4 mg/kg, i.p.): > 60%
effect on number of no response trials ([2]; Compound 2 1 mg/kg co-administered with clozapine 5.4 mg/kg): no adverse effects
decrease in avoidance responding ([2]; Compound 2 1 mg/kg co-administered with haloperidol 0.54 mg/kg, i.p.): > 50%
effect on number of no response trials ([2]; Compound 2 1 mg/kg co-administered with haloperidol 0.54 mg/kg): no adverse effects
block of apomorphine-induced climbing ([3]; Compound 2 3, 10 & 30 mg/kg co-administered with clozapine 3 & 5.4 mg/kg): greater block
block of apomorphine-induced climbing ([3]; Compound 2 3, 10 & 30 mg/kg co-administered with haloperidol 0.1 & 0.17 mg/kg): greater block
ED50 ([3]; co-administered with 0.1 mg/kg of haloperidol, mice): 2.4 mg/kg
ED50 ([3]; co-administered with 0.17 mg/kg of haloperidol, mice): 4.1 mg/kg
ED50 ([3]; compound alone, Experiment 4, mice): 27.1 mg/kg
ED50 [3, 5]: 27.1 mg/kg
dose for increased efficacy with co-administration ([3]; mice): 3 mg/kg
